Patent publication US10370380B2, “Octahydropyrrolo[3,4-c]pyrrole derivatives and uses thereof” (Sunshine Lake Pharma Co., Ltd., priority 2015, dated 2019)

Assays:
[1] = target: T1, humanized OX2 receptor (Homo sapiens, UniProt O43614); experiment: Antagonistic effect on humanized OX2 receptor, calcium flux by fluorescence detection in HEK-293 cells; type: cell-based; details: HEK-293 cells, calcium flux induced by 10 nM orexin B; read-out: OX2 IC50
T1 construct: expressed in transfected cells; host or cells: HEK-293 cells
T1 sequence (O43614 1-444): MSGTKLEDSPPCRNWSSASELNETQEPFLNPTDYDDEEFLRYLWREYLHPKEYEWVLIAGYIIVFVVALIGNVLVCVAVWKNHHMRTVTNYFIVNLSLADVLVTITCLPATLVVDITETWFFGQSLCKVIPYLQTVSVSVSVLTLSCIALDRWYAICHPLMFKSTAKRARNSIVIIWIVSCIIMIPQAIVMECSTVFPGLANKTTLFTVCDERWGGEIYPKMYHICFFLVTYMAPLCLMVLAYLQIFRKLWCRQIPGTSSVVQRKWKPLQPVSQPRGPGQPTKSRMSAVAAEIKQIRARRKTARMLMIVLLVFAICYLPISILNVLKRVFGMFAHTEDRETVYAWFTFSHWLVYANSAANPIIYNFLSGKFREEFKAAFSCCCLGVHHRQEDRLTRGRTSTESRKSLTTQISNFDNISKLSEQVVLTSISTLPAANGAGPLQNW
Description: The capability of the compounds provided herein to antagonize humanized OX2 receptors expressed in HEK-293 cells was evaluated by the influence of the compounds disclosed herein on calcium flux in cells induced by agonist detected by a method of fluorescence detection. The cells were suspended in DMEM culture medium (invitrogen), and then added to a microplate with an average density of 3×10^4 cells/well. The Hank's balanced salt solution (pH 7.4) containing fluorescent probes (Fluo4 NW, Invitrogen), probenecid (invitrogen), 20 mM […] (invitrogen) was added to the above microplate, and then incubated together with the cells at 37° C. for 60 min, further incubated at 22° C. for 15 min. The microplate was placed in a microplate reader (CellLux, PerkinElmer), and to which was added the test compound or reference antagonist or Hank's balanced salt solution, 5 min later, 10 nM of orexin B or Hank's balanced salt solution (as a blank contrast) was added. […] The experimental results were expressed as an inhibition percentage relative to a control group (the group with 10 nM of orexin B).
The standard reference antagonist is JNJ10397049, and IC50 values were calculated by the dose-effect curve obtained from a series of concentrations of the experimental test.

[2] = Pharmacokinetic evaluation after intravenous or gavage administration to rats; type: in vivo, SD rats; details: SD, rat, in vivo
Description: (§1) The compounds disclosed herein were administered in form of a saline solution containing 5% DMSO, 5% Kolliphor HS 15, 2% (2% HCl) and 88% Saline, or a solution containing 10% DMSO, 10% Kolliphor HS 15 and 80% physiological saline to the subject animals. For intravenous administration, the animals were administered with a dose of 1 mg/kg or 2 mg/kg, and vein blood samples (0.3 mL) were collected at the time points of 0.083, 0.25, 0.5, 1.0, 2.0, 4.0, 6.0, 8.0 and 24 h after drug administration; plasma samples were collected by centrifugation of the vein blood samples at 3000 rpm or 4000 rpm for 10 minutes, and stored at −20° C. or −70° C. For gavage administration, the animals were administered with a dose of 2.5 mg/kg or 5 mg/kg, and vein blood samples (0.3 mL) were collected at the time points of 0.25, 0.5, 1.0, 2.0, 4.0, 6.0, 8.0 and 24 h after drug administration; plasma samples were collected by centrifugation at 3000 rpm or 4000 rpm for 10 minutes, and stored at −20° C. or −70° C. The positive control is suvorexant.
(§2) The above plasma samples were analyzed by the LC-MS/MS system.

[3] = Pharmacokinetic evaluation after intravenous or gavage administration to dogs; type: in vivo, Beagle dogs; details: beagle, dog, in vivo
Description: as §1, §2

IC50 [1] | AUC(0-inf) ([2]; iv, 1 mg/kg) | AUC(0-t) ([2]; iv, 1 mg/kg) | Cmax ([2]; iv, 1 mg/kg) | MRT inf ([2]; iv, 1 mg/kg) | Vd ([2]; iv, 1 mg/kg) | clearance ([2]; iv, 1 mg/kg) | half-life ([2]; iv, 1 mg/kg) | AUC(0-inf) ([2]; po, 2.5 mg/kg) | AUC(0-t) ([2]; po, 2.5 mg/kg) | Cmax ([2]; po, 2.5 mg/kg) | F ([2]; po, 2.5 mg/kg) | MRT inf ([2]; po, 2.5 mg/kg) | half-life ([2]; po, 2.5 mg/kg) | Structure (SMILES) | also measured
221 nM | 551 ng·h/mL | 549 ng·h/mL | 639 ng/mL | 47.2 min | 1.42 L/kg | 30.4 mL/min/kg | 36.1 min | 790 ng·h/mL | 783 ng·h/mL | 485 ng/mL | 57.3% | 88.8 min | 61.8 min | O=C(c1ccccc1-n1nccn1)N1CC2CN(c3nc4cc(Cl)ccc4o3)CC2C1 (stereo not shown) [Example 2, (2-(2H-1,2,3-triazol-2-yl)phenyl)(5-(5-chlorobenzo[d]oxazol-2-yl)hexahydropyrrolo[3,4-c]pyrrol-2(1H)-yl)methanone] | –
– | 865 ng·h/mL | 864 ng·h/mL | 1270 ng/mL | 32.9 min | 0.648 L/kg | 20.1 mL/min/kg | 30.1 min | 752 ng·h/mL | 750 ng·h/mL | 537 ng/mL | 34.7% | 70.2 min | 41 min | O=C(c1ccccc1-n1nccn1)N1CC2CN(c3ncc4cc(F)ccc4n3)CC2C1 (stereo not shown) [Example 13, (2-(2H-1,2,3-triazol-2-yl)phenyl)(5-(6-fluoroquinazolin-2-yl)hexahydropyrrolo [3,4-c]pyrrol-2(1H)-yl)methanone] | –
147 nM | 626 ng·h/mL | 624 ng·h/mL | 760 ng/mL | 45.5 min | 1.21 L/kg | 26.7 mL/min/kg | 34.6 min | 907 ng·h/mL | 904 ng·h/mL | 567 ng/mL | 57.9% | 82.2 min | 52.4 min | O=C(c1c(F)cccc1-n1nccn1)N1CC2CN(c3nc4cc(Cl)ccc4o3)CC2C1 (stereo not shown) [Example 3, (5-(5-chlorobenzo[d]oxazol-2-yl)hexahydropyrrolo[3,4-c]pyrrol-2(1H)-yl)(2-fluoro-6-(2H-1,2,3-triazol-2-yl)phenyl)methanone] | AUC(0-inf) ([3]; iv, 1 mg/kg): 8330 ng·h/mL; AUC(0-t) ([3]; iv, 1 mg/kg): 8320 ng·h/mL; Cmax ([3]; iv, 1 mg/kg): 3830 ng/mL; MRT inf ([3]; iv, 1 mg/kg): 175 min; Vd ([3]; iv, 1 mg/kg): 1.75 L/kg; half-life ([3]; iv, 1 mg/kg): 144 min; AUC(0-t) ([3]; po, 5 mg/kg): 35000 ng·h/mL; Cmax ([3]; po, 5 mg/kg): 5640 ng/mL; F ([3]; po, 5 mg/kg): 84.0%; MRT inf ([3]; po, 5 mg/kg): 275 min; half-life ([3]; po, 5 mg/kg): 176 min
